Assay [1] has as its target T1, α-EfCA (Enterococcus faecium, UniProt Q3XYE8).
T1 construct: gene HMPREF0351_11360
T1 sequence (Q3XYE8 1-234): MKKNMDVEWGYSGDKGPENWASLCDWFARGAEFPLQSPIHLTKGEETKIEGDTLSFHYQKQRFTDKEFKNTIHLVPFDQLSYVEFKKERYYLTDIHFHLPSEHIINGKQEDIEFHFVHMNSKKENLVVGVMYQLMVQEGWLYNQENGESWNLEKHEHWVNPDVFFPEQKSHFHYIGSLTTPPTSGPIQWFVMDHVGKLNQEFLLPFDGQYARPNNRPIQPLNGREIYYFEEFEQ
Nature of the assay: biochemical. The arrangement: stopped-flow CO2 hydration assay of recombinant carbonic anhydrases, pH 7.4 (alpha) or 8.3 (gamma), KI. As to the method: (§1) The experiments were performed at the pH of 7.4 for the α-class enzymes, and the pH of 8.3 for the γ-CA, as reported earlier[15]^,[16]. The bacterial enzymes were recombinant proteins obtained as reported earlier by our group[15]^,[16].

The target of assay [2] is T2, α-NgCA (Neisseria gonorrhoeae, UniProt Q50940).
T2 construct: gene cah
T2 sequence (Q50940 27-252): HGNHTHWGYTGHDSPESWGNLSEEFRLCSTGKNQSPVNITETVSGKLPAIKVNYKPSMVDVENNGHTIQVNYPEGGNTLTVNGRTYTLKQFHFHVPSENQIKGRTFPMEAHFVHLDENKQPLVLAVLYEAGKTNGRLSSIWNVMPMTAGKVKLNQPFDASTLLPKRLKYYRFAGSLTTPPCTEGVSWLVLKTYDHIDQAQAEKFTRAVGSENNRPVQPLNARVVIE
Kind of assay: biochemical. Set-up: stopped-flow CO2 hydration assay of recombinant carbonic anhydrases, pH 7.4 (alpha) or 8.3 (gamma), KI. As to the method:
as §1

The target of assay [3] is γ-EfCA. Nature of the assay: stopped-flow CO2 hydrase assay. Type of assay: biochemical, Enterococcus faecium. Conditions: CO2 hydration, pH 8.3.
For assay [4], the target named is T2, α-NgCA. Nature of the assay: stopped-flow CO2 hydrase assay. Format: biochemical.
In assay [5] the target is T1, α-EfCA. Kind of assay: stopped-flow CO2 hydrase assay. Format: biochemical.

What is called Ki is a measure of affinity in units of concentration, obtained from inhibition or displacement.

As to `O=C(S)N1CCOCC1` [compound 1], the Ki is 740 nM in assay [1] and 761 nM in assay [2].

As to `CC(C)CN(CC(C)C)C(=O)S` [compound 2], the Ki in assay [1] stood at 665 nM; in assay [2], 890 nM.

For the compound `CCCCN(CCCC)C(=O)S` [compound 3], the Ki worked out at 517 nM in assay [1] and 825 nM in assay [2].

Take `CCCN(CCC)C(=O)S` [compound 4]: the inhibitory constant (Ki) was found to be 550 nM in assay [1] and 799 nM in assay [2].

`O=C(CN1CCN(C(=O)S)CC1)NC1CCCCC1` [compound 5, MTC 5]: the figures for the inhibition constant Ki in assay [3], in assay [4] and in assay [5] were 0.417 µM, 0.395 µM and 0.29 µM, respectively.

On to `CN1CCN(C(=O)S)CC1` [compound 6], for which the Ki in assay [1] came out at 959 nM; in assay [2] it was 729 nM.

Turning to `CCOC(=O)CN(C)C(=O)S` [compound 7, MTC 7], the affinity in assay [3] corresponds to a Ki of 0.279 µM.

On to `CCOC(=O)CN(C)C(=O)S` [compound 7], for which the figures for the Ki in assay [1] and in assay [2] were 788 nM and 919 nM, respectively.

On to `CN(Cc1ccccc1)C(=O)S` [compound 8], for which the Ki in assay [1] stood at 686 nM; in assay [2], 843 nM.

`O=C(S)NCCc1ccccc1` [compound 9, MTC 9]: the affinity in assay [5], expressed as Ki, was 0.428 µM.

Turning to `O=C(S)NCCc1ccccc1` [compound 9], the inhibitory constant (Ki) in assay [2] came to 648 nM.

On to `CCCCN(CC)C(=O)S` [compound 10], for which the Ki in assay [1] is 806 nM; in assay [2], 766 nM.

In the case of `O=C(S)N1CCN(C(=O)S)CC1` [compound 11], the figures for the Ki in assay [1] and in assay [2] were 915 nM and 630 nM, respectively.

Consider `COc1ccc(CCNC(=O)S)cc1OC` [compound 12, MTC 12], for which the Ki in assay [3] was determined as 0.358 µM; in assay [4], 0.512 µM; in assay [5], 0.357 µM.

As for `O=C(S)N1CCN(c2ccc(C(F)(F)F)cc2)CC1` [compound 13, MTC 13], the inhibition constant (Ki) in assay [3] was 0.334 µM; in assay [4], 0.394 µM; in assay [5] it was 0.477 µM.

As for `O=C(S)N1CCN(c2ccc(F)cc2)CC1` [compound 14, MTC 14], the Ki in assay [3] stood at 0.149 µM; in assay [4] it was 0.417 µM; in assay [5] it was 0.195 µM.

As for `O=C(S)N1CCN(c2cccc(Cl)c2)CC1` [compound 15, MTC 15], the Ki in assay [3] was found to be 0.214 µM; in assay [4], 0.367 µM; in assay [5], 0.3 µM.

The values above are taken from article PMC11003479, “Inhibition of pathogenic bacterial carbonic anhydrases by monothiocarbamates” (Journal of Enzyme Inhibition and Medicinal Chemistry, 2023).
